Data: paper PMC11866022, “Long-Chain Cyclic Arylguanidines as Multifunctional Serotonin Receptor Ligands with Antiproliferative Activity” (ACS Omega, 2025)
“And” between values parts separate entries of the source, which are not always exact repeats. Equal entries are not always repeated.

Tests used:
[1] = tested on: U87MG glioblastoma cells; assay: Antiproliferative activity (MTS), U87MG; assay type: cell-based, human; conditions: Homo sapiens, U-87 MG; MTS assay
Procedure: These cell lines were characterized by different mutation profiles, the main one being the variable status of the p53 protein. In detail, U87MG cells have a wild-type p53 protein, while astrocytoma and the rest of GBM cells harbor mutated p53 protein. Additional assays were performed on MCF7 breast cancer and AsPC-1 pancreatic cancer cells. The wide range of tested lines was aimed at screening the anticancer potential of the tested compounds. The first represents one of the most common and the second one of the most aggressive cancers in the world. Comparing the activity of compounds on GBM cells to other types of cancer may reveal their selectivity and usefulness in targeted therapies. The cytotoxicity of the compounds on normal human astrocytes (NHA) and Feline catus astrocyte (PG-4) was determined. Tests on normal lines serve to verify the potential toxicity of the tested compounds on healthy cells. Due to the targeting of CNS tumors, astrocytes were selected as normal lines.
The detailed procedure is presented in previous publications.[53] […] Cells were cultured in appropriate media, supplemented with FBS, antibiotics, and other supplements, and incubated at 37 °C with 5% CO2. […] Cell viability was assessed using the MTS assay, and the inhibitory concentration (IC50) was calculated using GraphPad Prism 8.0. Each compound was tested in triplicate across multiple experiments.
Supplementary materials - Biological research
B) U87MG glioblastoma multiforme line.
and U87MG glioblastoma multiforme line for C) PP 3; D) PP 6; E) PP 8; F) PP 10; G) PP 11; H) PP

[2] = biological target: T1, human serum albumin (HSA) (Homo sapiens, UniProt P02768); assay: HSA binding by biochromatography (HSA column); assay type: in vitro ADME; conditions: HSA column
T1 construct: purchased
T1 sequence (P02768 25-609): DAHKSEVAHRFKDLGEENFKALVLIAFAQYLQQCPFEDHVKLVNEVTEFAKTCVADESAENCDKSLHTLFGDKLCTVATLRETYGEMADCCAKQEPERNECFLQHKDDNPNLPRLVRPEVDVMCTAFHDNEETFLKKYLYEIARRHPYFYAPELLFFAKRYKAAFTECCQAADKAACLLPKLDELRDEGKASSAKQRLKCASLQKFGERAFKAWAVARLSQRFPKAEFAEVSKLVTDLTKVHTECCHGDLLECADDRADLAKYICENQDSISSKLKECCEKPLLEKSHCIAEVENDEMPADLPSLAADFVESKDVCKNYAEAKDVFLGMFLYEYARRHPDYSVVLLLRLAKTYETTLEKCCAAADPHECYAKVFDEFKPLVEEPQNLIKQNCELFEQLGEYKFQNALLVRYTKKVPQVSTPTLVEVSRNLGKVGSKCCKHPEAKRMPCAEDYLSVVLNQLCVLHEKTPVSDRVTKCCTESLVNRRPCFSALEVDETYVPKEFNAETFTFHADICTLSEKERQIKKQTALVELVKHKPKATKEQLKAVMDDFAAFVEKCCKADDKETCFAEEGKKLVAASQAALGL
Procedure: Lipophilicity and affinity for phospholipids for each investigated molecule were assessed. Additionally, selected compounds with the highest biological activities have been characterized by their affinity plasma proteins. All experiments were performed using protocols developed by Valko.[35] These methods facilitated the calculation of chromatographic hydrophobicity indices (CHI) and plasma protein binding percentages (%PPB) in a biochromatographic experiment, with results compared to the reference. A detailed description of the experiments is provided in the Supporting Information (SI), along with the raw data. […] Although high lipophilicity may limit the medical use of the analyzed compounds since they may tend to accumulate excessively in the human body, it is remarkable that several clinically used drugs also have high lipophilicity. […] (Table 5).
The detailed procedure is presented in previous publications.[53] High-performance liquid chromatography (HPLC) analyses were conducted using the Prominence-1 LC-2030C 3D system (Shimadzu) with a DAD detector, employing three different chromatographic columns with specific stationary phases and mobile phases. The analysis was performed at 30 °C with a flow rate of 1.5 mL/min for IAM and C18 columns, and 0.9 mL/min for the Chiralpak column. Calibration standards for the columns were sourced from various suppliers and dissolved in dimethyl sulfoxide. Detection occurred in the UV range (190–300 nm) with a 5 μL injection volume. Each compound was analyzed in triplicate. Retention times for the tested compounds and calibration standards are provided in the Supporting Information (Tables S1 and S2).

[3] = biological target: 5-HT5A (Homo sapiens, UniProt P47898); assay: Radioligand binding assay, 5-HT5A ([3H]-LSD); conditions: Table 3, unit inferred; 3.5 nM [3H]-LSD
5-HT5A, sequence (P47898 whole entry, species assumed): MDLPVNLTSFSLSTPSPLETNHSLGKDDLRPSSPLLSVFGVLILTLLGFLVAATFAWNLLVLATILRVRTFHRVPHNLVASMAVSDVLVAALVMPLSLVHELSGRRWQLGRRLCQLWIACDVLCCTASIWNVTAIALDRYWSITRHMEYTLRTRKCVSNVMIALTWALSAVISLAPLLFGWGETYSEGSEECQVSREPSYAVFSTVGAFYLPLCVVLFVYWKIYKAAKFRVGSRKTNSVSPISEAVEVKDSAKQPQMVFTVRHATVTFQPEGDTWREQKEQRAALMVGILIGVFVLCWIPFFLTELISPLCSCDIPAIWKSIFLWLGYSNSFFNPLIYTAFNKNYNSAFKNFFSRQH
Procedure: (§1) Their functional activity was also evaluated by assessing their ability to inhibit agonist-induced cAMP production in HEK293 cells (Table 3). Extended radioisotope tests were aimed at detecting potential affinity for other aminergic receptors, whose role in cancer treatment may be important. Functions were tested for all receptors. The essence of functional tests results from the fact that serotonin stimulates tumor progression. Therefore, the ligand should have the potential to reduce its concentration, i.e., act as an antagonist.[39]
The detailed procedure is presented in previous publications.[53] Assays were performed by incubating for 1 h at 37 °C (room temperature for 5-HT1A) in 200 μL volumes on 96-well plates. The reaction was terminated by rapid filtration using Unifilter plates, and radioactivity on the filters was measured with a PerkinElmer Microbeta plate reader. Radioligands used were:
Eight concentrations (10^–4 to 10^–11 M) were tested in triplicate for each compound. Inhibition constants (Ki) were calculated using the Cheng–Prusoff equation.[54] The results are expressed as the means of at least two independent experiments.

[4] = biological target: T2, 5-HT1A (Homo sapiens, UniProt P08908); assay: Functional cAMP assay (LANCE Ultra), 5-HT1A; assay type: cell-based; conditions: for EC50: agonist mode; for function at 5-HT1A: in words
T2 construct: expressed in transfected cells; host or cells: HEK293
T2 sequence (P08908 1-422): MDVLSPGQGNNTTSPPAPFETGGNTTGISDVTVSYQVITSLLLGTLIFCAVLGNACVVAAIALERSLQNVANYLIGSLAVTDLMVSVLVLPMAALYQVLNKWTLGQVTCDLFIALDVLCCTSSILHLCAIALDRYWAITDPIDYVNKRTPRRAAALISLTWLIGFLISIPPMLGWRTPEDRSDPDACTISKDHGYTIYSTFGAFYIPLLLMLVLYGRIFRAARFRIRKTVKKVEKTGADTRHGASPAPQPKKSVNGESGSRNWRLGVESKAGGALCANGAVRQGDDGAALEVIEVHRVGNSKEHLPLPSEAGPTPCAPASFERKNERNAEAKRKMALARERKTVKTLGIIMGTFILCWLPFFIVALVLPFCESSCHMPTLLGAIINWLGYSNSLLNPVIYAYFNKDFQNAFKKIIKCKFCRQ
Procedure: as §1
The detailed procedure is presented in previous publications.[53] The functional activity of the compounds was assessed using the LANCE Ultra cAMP detection kit (PerkinElmer). […] For other receptors (5-HT7R, 5-HT1AR, and 5-HT6R), 5-CT was used at 10, 100, and 1000 nM, respectively. Each compound was tested in triplicate across eight concentrations. The inhibitory constant (Kb) for each antagonist was calculated using the Cheng–Prusoff equation.

[5] = tested on: HSA and AGP (24:1); assay: TRANSILXL PPB plasma protein binding assay; conditions: human, TRANSILXL PPB assay, HSA and AGP in a ratio 24:1

SMILES	IC50 [1] [µM]	%HSA [2] [%]	EC50 ([4]; Table 3, unit inferred, cAMP) [µM]	function at 5-HT1A [4]	fraction unbound [5]	logKHSA [2]	Ki [3] [µM]	Kb ([4]; Table 3, unit inferred, cAMP, antagonist mode, 5-CT) [µM]
CC1NC(NCCCCCCNS(=O)(=O)c2cccc3ccccc23)=Nc2ccccc21 (centres unmarked) [PP 10, N-{6-[(4-Methyl-3,4-dihydroquinazolin-2-yl)amino]hexyl}naphthalene-1-sulfonamide]	20.7 ± 1.2	97.7	–	antagonist	0.003	1.47 and 1.5	0.059	0.074
CC1NC(NCCCCCCNS(=O)(=O)c2c(Cl)ccc3ccccc23)=Nc2ccccc21 (centres unmarked) [PP 13, 2-Chloro-N-{6-[(4-methyl-3,4-dihydroquinazolin-2-yl)amino]hexyl}naphthalene-1-sulfonamide]	13.6 ± 1.1	>99.8	1.54	agonist	0.001 ± 3e-07	–	–	–
O=S(=O)(NCCCCCCNc1ncc2ccccc2n1)c1cccc2ccccc12 [PP 15, N-{6-[(Quinazolin-2-yl)amino]hexyl}naphthalene-1-sulfonamide]	> 25	97.8	–	–	–	1.48 and 1.5	1.09	–

Now from value to compound, other results behind:

IC50 [1] [µM]	%HSA [2] [%]	EC50 ([4]; Table 3, unit inferred, cAMP) [µM]	function at 5-HT1A [4]	fraction unbound [5]	SMILES	logKHSA [2]	Ki [3] [µM]	Kb ([4]; Table 3, unit inferred, cAMP, antagonist mode, 5-CT) [µM]
> 25	97.2	0.375	agonist	–	O=S(=O)(c1cccc2ccccc12)N1CCN(CCNC2=Nc3ccccc3CN2)CC1 [PP 6, N-{2-[4-(Naphthalene-1-sulfonyl)piperazin-1-yl]ethyl}-3,4-dihydroquinazolin-2-amine]	1.41 and 1.4	0.328	–
13.6 ± 0.6	98.8	–	–	0.004	O=S1(=O)c2cccc3cccc(c23)N1CCCCCCNC1=Nc2ccccc2CN1 [PP 24, 3-{6-[(3,4-Dihydroquinazolin-2-yl)amino]hexyl}-2λ^6-thia-3-azatricyclo[6.3.1.0^4,^12]dodeca-1(11),4(12),5,7,9-pentaene-2,2-dione]	1.65 and 1.6	–	–
